From patent US9388139B2, “Derivatives of celeboxib, use thereof and preparation thereof” (German University, priority 2011, dated 2016)

Experiments:
[1] = molecular target: recombinant human PDE5 (Homo sapiens (Human), UniProt O76074); assay: PDE5 inhibition, IMAP fluorescence polarization assay; format: biochemical; details: recombinant human PDE5; IC50 determined if inhibition >50% at 50 μM screening dose; read-out: IC50 μM against PDE5
Experimental: (§1) Compounds according to the present disclosure were tested for their in vitro ability to inhibit recombinant human PDE5, COX1 and COX2 enzymes at screening doses of 50, 100 and 100 μM respectively.
(§2) PDE activity was measured using the IMAP fluorescence polarization assay (Molecular Devices) in which binding of hydrolyzed cyclic nucleotide substrate to immobilized metal coordination complexes increases fluorescence polarization (FP). Tetramethylrhodamine (TAMRA)-cGMP and fluorescein-cAMP were used as substrates, each at final concentration of 50 nmol/L. The PDE assay was done according to the manufacturer's specifications using either whole cell lysates or recombinant enzymes.

[2] = molecular target: COX1 (Ovis aries (Sheep), UniProt P05979); assay: COX-1 activity, colorimetric assay; format: biochemical, ovine; details: screening dose 100 μM; read-out: IC50 μM against COX1
Experimental: as §1
(§3) COX-1 and COX-2 activities were measured using purified ovine COX-1 and COX-2 with colorimetric assay kits obtained from Cayman Chemical Co. (Ann Arbor, Mich.). The activities of COX-1 and COX-2 were measured after the addition of arachidonic acid and incubation at 25° C. for 5 min by absorbance at 590 nm as specified by the manufacturer.

[3] = molecular target: COX2 (Ovis aries (Sheep), UniProt P79208); assay: COX-2 activity, colorimetric assay; format: biochemical, ovine; details: screening dose 100 μM; read-out: IC50 μM against COX2
Experimental: as §1, §3

[4] = test system: human colorectal HT-29 tumor cell line; assay: Tumor cell growth assay (Cell Titer Glo); format: cell-based; details: HT-29, 72 hours, read-out: IC50 μM against HT-29
[5] = molecular target: PDE2A (Homo sapiens (Human), UniProt O00408); assay: PDE isozyme selectivity, IMAP assay; format: biochemical
Experimental: as §2

[6] = molecular target: PDE10 (Homo sapiens (Human), UniProt Q9Y233); assay: PDE isozyme selectivity, IMAP assay; format: biochemical
Experimental: as §2, with “enzymes. FP was measured at excitation, emission wavelengths of either 530,590 nm for TAMRA-cGMP or 485,530 nm for fluorescein-cAMP using a Synergy4 (Biotek) microplate reader.” for “enzymes.”

[7] = molecular target: PDE11 (Homo sapiens (Human), UniProt Q9HCR9); assay: PDE isozyme selectivity, IMAP assay; format: biochemical
Experimental: as §2, with “enzymes. FP was measured at excitation, emission wavelengths of either 530,590 nm for TAMRA-cGMP or 485,530 nm for fluorescein-cAMP using a Synergy4 (Biotek) microplate reader.” for “enzymes.”

[8] = molecular target: PDE1A (Homo sapiens (Human), UniProt P54750); assay: PDE isozyme selectivity, IMAP assay; format: biochemical
Experimental: as §2, with “enzymes. FP was measured at excitation, emission wavelengths of either 530,590 nm for TAMRA-cGMP or 485,530 nm for fluorescein-cAMP using a Synergy4 (Biotek) microplate reader.” for “enzymes.”

[9] = molecular target: PDE3A (Homo sapiens (Human), UniProt Q14432); assay: PDE isozyme selectivity, IMAP assay; format: biochemical
Experimental: as §2, with “enzymes. FP was measured at excitation, emission wavelengths of either 530,590 nm for TAMRA-cGMP or 485,530 nm for fluorescein-cAMP using a Synergy4 (Biotek) microplate reader.” for “enzymes.”

[10] = molecular target: PDE3B (Homo sapiens (Human), UniProt Q13370); assay: PDE isozyme selectivity, IMAP assay; format: biochemical
Experimental: as §2, with “enzymes. FP was measured at excitation, emission wavelengths of either 530,590 nm for TAMRA-cGMP or 485,530 nm for fluorescein-cAMP using a Synergy4 (Biotek) microplate reader.” for “enzymes.”

[11] = molecular target: PDE5A (Homo sapiens (Human), UniProt O76074); assay: PDE isozyme selectivity, IMAP assay; format: biochemical
Experimental: as §2, with “enzymes. FP was measured at excitation, emission wavelengths of either 530,590 nm for TAMRA-cGMP or 485,530 nm for fluorescein-cAMP using a Synergy4 (Biotek) microplate reader.” for “enzymes.”

[12] = molecular target: PDE9A (Homo sapiens (Human), UniProt O76083); assay: PDE isozyme selectivity, IMAP assay; format: biochemical; details: substrate cGMP
Experimental: as §2, with “enzymes. FP was measured at excitation, emission wavelengths of either 530,590 nm for TAMRA-cGMP or 485,530 nm for fluorescein-cAMP using a Synergy4 (Biotek) microplate reader.” for “enzymes.”

[13] = test system: EKVX; assay: Tumor cell growth inhibition panel; format: cell-based; details: Homo sapiens, Lung
Experimental: (§4) Thus, compound 12 is able to show broad spectrum tumor cell growth inhibitory activity independent of cyclooxygenase inhibition, whereas PDE5 may be the major contributor to such activity.
(§5) The human tumor cell lines were purchased from the American Type Culture Collection (Mansassas, Va.) and maintained in RPMI-1640+2.0 g/L glucose pH 7.4+5% FBS+4 mM glutamine (complete growth medium), incubated at 37° C. in 5% CO2, and passaged at subconfluent density. The human fetal colon FHC cells were cultured in DMEM:F12 medium supplemented with 10% FBS, cholera toxin (10 ng/mL), 5 μg/ml transferrin, 5 μg/ml insulin, and 100 ng/ml hydrocortisone. The passage number was routinely limited to approximately 20 and morphology monitored with each passage, but no additional authentication of the cell lines was performed.
(§6) Cells were plated in 96-well microtiter plates at a density of 5,000 cells per well and allowed to adhere overnight prior to treatment. Cells were treated with a 2-log concentration range of either SS or SBA and incubated for an additional 72 hours. For siRNA assays, cells were transfected in OptiMEM media with 0.5% SureFECT transfection reagent and 200 nmol/L of either negative control or PDE5 siRNA and incubated at 37° C. for 24 h prior to treatment. At the end of the incubation period, relative cell viability was compared to vehicle controls using the Cell Titer Glo Assay (Promega, Madison Wis.), which measures viable cells based on ATP content, according to the manufacturer's specifications.

[14] = test system: IGROV-1; assay: Tumor cell growth inhibition panel; format: cell-based; details: Homo sapiens, Ovarian
Experimental: as §4, §5, §6

[15] = test system: LOX IMV1; assay: Tumor cell growth inhibition panel; format: cell-based; details: Homo sapiens, Melanoma
Experimental: as §4, §5, §6

[16] = test system: NCI-H23; assay: Tumor cell growth inhibition panel; format: cell-based; details: Homo sapiens, Lung
Experimental: as §4, §5, §6

[17] = test system: NCI-H460; assay: Tumor cell growth inhibition panel; format: cell-based; details: Homo sapiens, Lung
Experimental: as §4, §5, §6

[18] = test system: OVCAR-5; assay: Tumor cell growth inhibition panel; format: cell-based; details: Homo sapiens, Ovarian
Experimental: as §4, §5, §6

[19] = test system: RPMI-8226; assay: Tumor cell growth inhibition panel; format: cell-based; details: Homo sapiens, Hematopoietic
Experimental: as §4, §5, §6

[20] = test system: SF-539; assay: Tumor cell growth inhibition panel; format: cell-based; details: Homo sapiens, CNS
Experimental: as §4, §5, §6

[21] = test system: SKOV-3; assay: Tumor cell growth inhibition panel; format: cell-based; details: Homo sapiens, SK-OV-3, Ovarian
Experimental: as §4, §5, §6

[22] = test system: SNB-75; assay: Tumor cell growth inhibition panel; format: cell-based; details: Homo sapiens, CNS
Experimental: as §4, §5, §6

[23] = test system: SR; assay: Tumor cell growth inhibition panel; format: cell-based; details: Homo sapiens, Hematopoietic
Experimental: as §4, §5, §6

[24] = test system: human tumor cell lines of different origins; assay: Tumor cell growth inhibition panel, overall; format: cell-based; details: in words; including the adriamycin resistant cell line ADR/NCl-RES
Experimental: as §4, §5
Cells were plated in 96-well microtiter plates at a density of 5,000 cells per well and allowed to adhere overnight prior to treatment. Cells were treated with a 2-log concentration range of either SS or SBA and incubated for an additional 72 hours. For siRNA assays, cells were transfected in OptiMEM media with 0.5% SureFECT transfection reagent and 200 nmol/L of either negative control or PDE5 siRNA and incubated at 37° C. for 24 h prior to treatment. […]

Sequence of PDE11 (Q9HCR9 whole entry): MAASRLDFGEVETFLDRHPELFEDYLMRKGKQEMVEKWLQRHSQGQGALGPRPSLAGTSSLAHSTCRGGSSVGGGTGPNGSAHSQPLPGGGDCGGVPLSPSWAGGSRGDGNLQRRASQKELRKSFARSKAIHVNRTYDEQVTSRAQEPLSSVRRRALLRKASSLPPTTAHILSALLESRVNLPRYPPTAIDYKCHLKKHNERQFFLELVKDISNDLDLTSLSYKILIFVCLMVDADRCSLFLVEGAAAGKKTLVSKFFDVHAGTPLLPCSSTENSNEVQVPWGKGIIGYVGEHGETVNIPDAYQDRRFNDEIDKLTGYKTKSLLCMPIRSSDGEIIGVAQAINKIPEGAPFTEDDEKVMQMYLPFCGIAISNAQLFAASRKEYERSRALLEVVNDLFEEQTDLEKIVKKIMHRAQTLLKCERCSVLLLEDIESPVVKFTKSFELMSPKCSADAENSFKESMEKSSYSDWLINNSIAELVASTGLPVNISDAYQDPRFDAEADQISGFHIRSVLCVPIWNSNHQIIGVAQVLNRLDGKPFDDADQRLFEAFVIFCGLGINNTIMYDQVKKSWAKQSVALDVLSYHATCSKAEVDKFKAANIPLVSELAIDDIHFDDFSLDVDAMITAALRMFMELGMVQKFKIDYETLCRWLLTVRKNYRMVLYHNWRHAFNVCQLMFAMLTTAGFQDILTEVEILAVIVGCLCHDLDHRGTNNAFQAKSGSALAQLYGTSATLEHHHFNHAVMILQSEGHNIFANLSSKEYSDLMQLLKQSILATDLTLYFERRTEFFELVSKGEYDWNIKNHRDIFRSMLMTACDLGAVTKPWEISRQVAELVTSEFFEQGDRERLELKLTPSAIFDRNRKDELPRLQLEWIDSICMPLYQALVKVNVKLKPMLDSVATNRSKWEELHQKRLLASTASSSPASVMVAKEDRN
Sequence of PDE1A (P54750 whole entry, species assumed): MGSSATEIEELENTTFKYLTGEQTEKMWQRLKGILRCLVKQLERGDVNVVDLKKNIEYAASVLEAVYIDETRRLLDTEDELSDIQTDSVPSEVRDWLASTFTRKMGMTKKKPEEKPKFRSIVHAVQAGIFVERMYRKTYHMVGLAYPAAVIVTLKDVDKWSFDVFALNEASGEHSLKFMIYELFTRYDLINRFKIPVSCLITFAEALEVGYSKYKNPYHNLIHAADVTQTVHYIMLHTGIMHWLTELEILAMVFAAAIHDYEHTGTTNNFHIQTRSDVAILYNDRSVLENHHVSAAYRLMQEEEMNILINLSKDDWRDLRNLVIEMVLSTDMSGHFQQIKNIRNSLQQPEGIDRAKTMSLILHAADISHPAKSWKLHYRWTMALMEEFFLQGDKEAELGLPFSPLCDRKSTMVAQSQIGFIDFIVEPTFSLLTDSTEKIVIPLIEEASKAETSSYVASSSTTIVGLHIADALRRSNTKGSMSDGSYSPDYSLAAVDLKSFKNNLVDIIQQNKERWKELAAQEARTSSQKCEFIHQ
Sequence of PDE3A (Q14432 whole entry, species assumed): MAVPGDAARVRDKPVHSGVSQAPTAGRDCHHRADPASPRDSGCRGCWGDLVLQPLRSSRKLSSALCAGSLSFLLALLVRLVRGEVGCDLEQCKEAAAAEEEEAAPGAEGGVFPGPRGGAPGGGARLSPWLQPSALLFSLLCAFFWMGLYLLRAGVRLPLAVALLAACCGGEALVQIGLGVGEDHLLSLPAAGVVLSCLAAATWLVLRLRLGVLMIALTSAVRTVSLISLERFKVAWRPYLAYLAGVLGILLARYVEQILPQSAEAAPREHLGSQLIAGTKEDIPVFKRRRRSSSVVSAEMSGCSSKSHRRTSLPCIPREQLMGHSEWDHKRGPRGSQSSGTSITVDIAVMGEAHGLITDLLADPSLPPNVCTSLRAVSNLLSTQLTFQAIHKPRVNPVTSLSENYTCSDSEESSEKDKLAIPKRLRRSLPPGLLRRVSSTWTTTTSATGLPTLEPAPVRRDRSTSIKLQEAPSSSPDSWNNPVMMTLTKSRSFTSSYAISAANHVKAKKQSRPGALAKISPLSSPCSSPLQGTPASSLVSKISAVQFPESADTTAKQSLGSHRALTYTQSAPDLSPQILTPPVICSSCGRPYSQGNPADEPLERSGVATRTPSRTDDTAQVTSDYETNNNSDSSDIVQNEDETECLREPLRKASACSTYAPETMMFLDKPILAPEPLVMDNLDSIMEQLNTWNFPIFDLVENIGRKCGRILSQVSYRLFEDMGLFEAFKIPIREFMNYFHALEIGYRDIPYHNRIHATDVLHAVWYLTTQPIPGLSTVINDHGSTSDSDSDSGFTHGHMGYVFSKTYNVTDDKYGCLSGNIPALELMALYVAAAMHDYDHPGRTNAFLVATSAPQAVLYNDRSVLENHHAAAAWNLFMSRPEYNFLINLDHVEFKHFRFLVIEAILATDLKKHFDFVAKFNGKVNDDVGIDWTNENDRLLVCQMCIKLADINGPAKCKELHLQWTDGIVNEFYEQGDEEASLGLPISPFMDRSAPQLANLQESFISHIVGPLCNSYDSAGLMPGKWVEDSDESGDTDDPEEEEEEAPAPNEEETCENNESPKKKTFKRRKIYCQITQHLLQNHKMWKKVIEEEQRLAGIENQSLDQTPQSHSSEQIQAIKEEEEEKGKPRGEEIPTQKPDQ
Sequence of PDE2A (O00408 whole entry, species assumed): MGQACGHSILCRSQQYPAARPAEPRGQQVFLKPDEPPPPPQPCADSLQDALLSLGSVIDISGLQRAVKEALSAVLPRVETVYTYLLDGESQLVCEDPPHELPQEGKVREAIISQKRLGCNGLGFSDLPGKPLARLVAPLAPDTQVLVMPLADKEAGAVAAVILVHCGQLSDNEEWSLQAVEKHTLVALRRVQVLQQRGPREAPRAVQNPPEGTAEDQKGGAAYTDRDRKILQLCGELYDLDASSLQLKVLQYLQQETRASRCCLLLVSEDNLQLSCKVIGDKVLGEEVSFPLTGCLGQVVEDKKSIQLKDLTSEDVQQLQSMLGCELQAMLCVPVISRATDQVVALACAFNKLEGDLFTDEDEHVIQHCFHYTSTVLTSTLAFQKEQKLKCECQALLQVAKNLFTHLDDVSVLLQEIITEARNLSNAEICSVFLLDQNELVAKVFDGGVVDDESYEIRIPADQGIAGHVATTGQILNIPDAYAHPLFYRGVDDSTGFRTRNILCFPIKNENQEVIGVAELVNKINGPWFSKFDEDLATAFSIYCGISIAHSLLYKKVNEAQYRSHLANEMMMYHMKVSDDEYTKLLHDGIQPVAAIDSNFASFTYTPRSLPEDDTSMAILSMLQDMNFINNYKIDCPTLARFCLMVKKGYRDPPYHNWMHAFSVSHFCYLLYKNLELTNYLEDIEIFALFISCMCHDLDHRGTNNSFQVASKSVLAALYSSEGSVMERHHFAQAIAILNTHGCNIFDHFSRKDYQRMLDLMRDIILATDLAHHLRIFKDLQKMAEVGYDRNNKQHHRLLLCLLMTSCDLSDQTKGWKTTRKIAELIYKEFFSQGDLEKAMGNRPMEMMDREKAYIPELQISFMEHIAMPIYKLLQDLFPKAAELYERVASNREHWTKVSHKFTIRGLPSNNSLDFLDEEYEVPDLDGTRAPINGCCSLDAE
Sequence of PDE10 (Q9Y233 whole entry): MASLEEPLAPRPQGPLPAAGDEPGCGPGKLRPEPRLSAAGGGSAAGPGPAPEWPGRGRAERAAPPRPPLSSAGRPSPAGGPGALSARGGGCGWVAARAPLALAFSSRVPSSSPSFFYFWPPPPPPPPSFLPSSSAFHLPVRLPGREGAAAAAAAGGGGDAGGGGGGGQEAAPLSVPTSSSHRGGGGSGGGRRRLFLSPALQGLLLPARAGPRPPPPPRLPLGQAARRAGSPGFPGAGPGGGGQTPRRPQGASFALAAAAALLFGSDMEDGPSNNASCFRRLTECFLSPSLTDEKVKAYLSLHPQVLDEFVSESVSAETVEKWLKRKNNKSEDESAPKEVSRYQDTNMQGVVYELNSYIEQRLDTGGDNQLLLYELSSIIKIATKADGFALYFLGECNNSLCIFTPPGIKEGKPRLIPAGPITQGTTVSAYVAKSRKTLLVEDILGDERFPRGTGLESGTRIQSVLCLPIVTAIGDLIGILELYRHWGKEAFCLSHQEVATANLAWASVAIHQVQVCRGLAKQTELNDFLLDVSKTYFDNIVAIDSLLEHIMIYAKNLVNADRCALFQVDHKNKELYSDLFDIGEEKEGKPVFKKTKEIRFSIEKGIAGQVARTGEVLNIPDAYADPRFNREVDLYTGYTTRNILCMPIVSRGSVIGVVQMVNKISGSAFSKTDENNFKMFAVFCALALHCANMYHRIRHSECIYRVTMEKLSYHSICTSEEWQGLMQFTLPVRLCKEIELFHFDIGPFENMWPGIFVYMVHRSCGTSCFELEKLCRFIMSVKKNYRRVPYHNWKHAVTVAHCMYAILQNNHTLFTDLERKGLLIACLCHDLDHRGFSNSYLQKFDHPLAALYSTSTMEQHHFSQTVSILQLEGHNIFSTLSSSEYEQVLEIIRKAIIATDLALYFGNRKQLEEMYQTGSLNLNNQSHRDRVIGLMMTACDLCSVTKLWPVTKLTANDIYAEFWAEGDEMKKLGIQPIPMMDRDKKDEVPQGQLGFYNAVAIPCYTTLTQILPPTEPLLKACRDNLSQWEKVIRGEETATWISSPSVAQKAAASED

CC(C)(C)C1=NN(c2ccc(C(=O)O)cc2)C(c2ccc(Cl)cc2Cl)C1 (stereo not shown) [Compound 12, 4-(3-(tert-Butyl)-5-(2,4-dichlorophenyl)-4,5-dihydro-1H-pyrazol-1-yl)benzoic acid]
IC50 [1]: 3.7 µM | IC50 [2]: > 100 µM | IC50 [3]: > 100 µM | IC50 [4]: 29.8 µM | IC50 ([5]; substrate cAMP): > 50 µM | IC50 ([5]; substrate cGMP): > 50 µM | IC50 ([6]; PDE10, substrate cAMP): > 50 µM | IC50 ([6]; PDE10, substrate cGMP): > 50 µM | IC50 ([7]; PDE11, substrate cAMP): > 50 µM | IC50 ([7]; PDE11, substrate cGMP): > 50 µM | IC50 ([8]; substrate cAMP): > 50 µM | IC50 ([8]; substrate cGMP): > 50 µM | IC50 ([9]; substrate cAMP): > 50 µM | IC50 ([9]; substrate cGMP): > 50 µM | IC50 ([10]; substrate cAMP): > 50 µM | IC50 ([10]; substrate cGMP): > 50 µM | IC50 ([11]; PDE5A, substrate cGMP): 3.7 µM | selectivity for PDE5 relative to other cGMP degrading PDE isozymes ([11]; in words): selective inhibitor for PDE5 | IC50 [12]: > 50 µM | IC50 [13]: 57.2 µM | IC50 [14]: 59 µM | IC50 [15]: 50.5 µM | IC50 [16]: 40.6 µM | IC50 [17]: 42.9 µM | IC50 [18]: 59.4 µM | IC50 [19]: 23.2 µM | IC50 [20]: 52.9 µM | IC50 [21]: 87.4 µM | IC50 [22]: 67.8 µM | IC50 [23]: 43 µM | tumor cell growth inhibitory activity [24]: broad spectrum growth inhibitory activity
